Experimental data reported in PubChem BioAssay (NCI).
Several values for one entry are separate records, joined by “and”; a condition that tells them apart may be missing. Equal values may be shown once.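 Protocol summary: plate cells (96-well), add compound at 5 concentrations, incubate 48 h, interpolate endpoints linearly. Here, GI50 denotes the concentration required for 50% inhibition of growth. TGI denotes the concentration required for complete inhibition of growth.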 Where a SMILES comes first, the peptide text is derived from it. [ ]: non-standard residue; d: D form. The star is where a group is joined. ξ: configuration not given here. dIva = CC[C@@](C)(N)C(=O)O; Aib = CC(C)(N)C(=O)O; ξP = O=C(O)C1CCCN1; βAla = NCCC(=O)O; X5 = OCN*

Columns and labels:
Assay in all cases: growth of human tumour cells (NCI), 48 h
ACHN renal = tested on: ACHN renal
CAKI-1 renal = tested on: CAKI-1 renal
HCT-15 colon = tested on: HCT-15 colon
HOP-62 NSCLC = tested on: HOP-62 NSCLC
KM12 colon = tested on: KM12 colon
MCF7 breast = tested on: MCF7 breast
NCI-H23 lung = tested on: NCI-H23 lung
NCI/ADR-RES ovarian = tested on: NCI/ADR-RES ovarian
OVCAR-4 ovarian = tested on: OVCAR-4 ovarian
UACC-257 melanoma = tested on: UACC-257 melanoma

Structure (SMILES)	GI50 (ACHN renal)	TGI (ACHN renal)	GI50 (CAKI-1 renal)	TGI (CAKI-1 renal)	GI50 (HCT-15 colon)	TGI (HCT-15 colon)	GI50 (HOP-62 NSCLC)	TGI (HOP-62 NSCLC)	GI50 (KM12 colon)	TGI (KM12 colon)	GI50 (MCF7 breast)	TGI (MCF7 breast)	GI50 (NCI-H23 lung)	TGI (NCI-H23 lung)	GI50 (NCI/ADR-RES ovarian)	TGI (NCI/ADR-RES ovarian)	GI50 (OVCAR-4 ovarian)	TGI (OVCAR-4 ovarian)	GI50 (UACC-257 melanoma)	TGI (UACC-257 melanoma)
CCCC(CCC)C(=O)O	> 100 µM	> 100 µM and 17400 µM	> 100 µM	> 20000 µM	> 100 µM	> 20000 µM	> 20000 µM	> 20000 µM	> 100 µM	> 20000 µM	> 100 µM	> 20000 µM	> 20000 µM	> 20000 µM	> 100 µM	> 20000 µM	> 100 µM	> 20000 µM	> 100 µM	> 20000 µM
CC[C@@](C)(NC(=O)[C@H](C)NC(=O)CCNC(=O)C(C)(C)NC(=O)[C@H](C)NC(=O)[C@@H]1CCCN1C(=O)[C@@](C)(CC)NC(=O)[C@H](Cc1ccccc1)NC(=O)C1CCCN1C(=O)C(C)(C)NC(=O)C1CCCN1C(=O)C(C)(C)NC(C)=O)C(=O)NCCC(=O)N[C@@H](CC(C)C)C(=O)NC(C)(C)C(=O)NCCC(=O)N[C@@H](CC(C)C)C(=O)NC(C)(C)C(=O)NC(C)(C)C(=O)N[C@@H](CC(C)C)C(=O)NCCC(=O)NCO (stereo partly drawn) (Ac-[Aib][ξP][Aib][ξP]F[dIva]PA[Aib][βAla]A[dIva][βAla]L[Aib][βAla]L[Aib][Aib]L[βAla]-X5)	0.199 µM	0.428 µM	0.231 µM	0.448 µM	0.229 µM	0.446 µM	0.18 µM	0.383 µM	0.168 µM	0.368 µM	0.0651 µM	0.286 µM	0.088 µM	0.32 µM	0.238 µM	0.488 µM	0.132 µM	0.346 µM	0.0579 µM	0.21 µM
CCN1C(=O)N(CC)C2C1NN=c1s/c(=C\c3cnc(C)n3C)c(=O)n12 (stereo not drawn)	5.94 µM	> 100 µM	0.7 µM	> 100 µM	3.42 µM	> 100 µM	2.59 µM	> 100 µM	1.22 µM	> 100 µM	0.676 µM	> 100 µM	3.17 µM	> 100 µM	10.3 µM	> 100 µM	3.76 µM	> 100 µM	4.69 µM	> 100 µM
COC(=O)C1=C(O)C(C(=O)OC)[C@@]2(O)[C@@H](C(=O)OC)C(c3ccccc3Cl)C[C@@H]1[C@@H]2C(=O)OC (stereo partly drawn)	5.96 µM	23.4 µM	3.47 µM	11.2 µM	4.7 µM	18 µM	10.4 µM	23.8 µM	6.5 µM	21.2 µM	5.24 µM	> 100 µM	9.79 µM	23.3 µM	3.16 µM	15.9 µM	3.44 µM	13.8 µM	15.9 µM	38.8 µM
C=CC(=O)Nc1cccc(Nc2nc(Nc3ccc(N4CCN(C(C)=O)CC4)cc3OC)ncc2C(F)(F)F)c1	2.96 µM and 1.84 µM	> 30.3 µM	2.32 µM and 1.64 µM	> 10 µM and 6.01 µM	3.06 µM and 2.94 µM	> 10 µM and 13.8 µM	6.52 µM and 6.2 µM	> 10 µM and 25.9 µM	7.48 µM and 5.58 µM	> 10 µM and 38.6 µM	1.41 µM and 0.933 µM	> 100 µM	5.27 µM and 5.47 µM	> 10 µM and 30 µM	7.5 µM and 9.09 µM	> 74.4 µM	5.12 µM and 1.71 µM	> 65.9 µM	3.97 µM and 2.97 µM	> 10 µM and 68.8 µM
CN(C)c1ccc(/C=N/NC(=O)c2cnc3ccccc3c2)cc1	–	> 100 µM	–	> 100 µM	–	> 100 µM	–	> 100 µM	–	> 100 µM	–	> 100 µM	–	> 100 µM	–	> 100 µM	–	> 100 µM	–	> 100 µM
CCC(=O)OCN1C(=O)C=CC1=O	15.1 µM	28.5 µM and 19.7 µM	10.5 µM	25.3 µM and 9.35 µM	20.1 µM	39.7 µM and 56.8 µM	–	37.6 µM and 34.9 µM	19.3 µM	35.1 µM and 30.8 µM	–	40.9 µM and 39.7 µM	20.1 µM	39.6 µM and 34.7 µM	–	56.2 µM and 63.5 µM	21.2 µM	39.5 µM and 34.5 µM	15.7 µM	29.4 µM and 22.2 µM
CN1C(=O)C(C)(C)Oc2c(-c3cn(C)c(=O)c4[nH]ccc34)cc(S(C)(=O)=O)cc21	1.39 µM	> 100 µM	0.271 µM	16.1 µM	2.58 µM	39.2 µM	0.732 µM	> 100 µM	1.44 µM	16.1 µM	0.338 µM	> 100 µM	1.71 µM	18.7 µM	14.3 µM	> 100 µM	0.741 µM	33.6 µM	0.865 µM	> 100 µM
COc1cc2c3c(n(CCCN4CCN(CCO)CC4)c(=O)c2cc1OC)-c1cc2c(cc1C3=O)OCO2	8.54 µM	> 44.4 µM	6.53 µM	42.2 µM	18.1 µM	> 61.2 µM	10.1 µM	54 µM	9.33 µM	22.7 µM	0.873 µM	17.5 µM	4.77 µM	16.5 µM	18.2 µM	> 100 µM	15.9 µM	> 50.7 µM	30.6 µM	> 81.4 µM
N#CC(CC(=O)O)=C(c1ccccc1)c1ccccc1	–	> 100 µM	–	> 100 µM	–	> 100 µM	–	> 100 µM	–	> 100 µM	–	> 100 µM	–	> 100 µM	–	> 100 µM	–	> 100 µM	–	> 100 µM
CC(=O)Nc1cc(CN2CCCCC2)c(O)c2ncccc12	–	72.2 µM	–	> 100 µM	–	> 100 µM	–	> 100 µM	–	> 100 µM	–	> 100 µM	–	> 100 µM	–	> 100 µM	–	> 100 µM	–	88.7 µM
COc1ccc(OC)c(/C=C/C(=O)c2ccc3cc(OC)ccc3c2)c1	–	> 32.9 µM	1.2 µM	10.6 µM	–	> 50 µM	9.71 µM	> 50 µM	3.02 µM	11.2 µM	11.4 µM	> 50 µM	–	> 14.3 µM	–	> 13.8 µM	10.8 µM	> 50 µM	7.05 µM	> 27.8 µM
COc1ccc(-c2cc(=O)c3cccnc3[nH]2)cc1	–	> 100 µM	–	> 100 µM	–	> 100 µM	–	> 100 µM	–	> 100 µM	–	> 100 µM	–	> 100 µM	–	> 100 µM	–	> 100 µM	–	> 100 µM
COC(=O)CCc1c(/C=C2\N=C(c3ccc[nH]3)C=C2OC)[nH]c(C)c1C(=O)OCc1ccccc1	0.297 µM	1.1 µM	0.272 µM	1.59 µM	0.177 µM	1.53 µM	0.303 µM	2 µM	0.29 µM	4.98 µM	0.313 µM	4.78 µM	0.795 µM	4.31 µM	0.437 µM	3.78 µM	0.331 µM	> 100 µM	1.16 µM	5.25 µM
CC1(C)N=C(N)N=C(N)N1c1ccc(CCC(=O)Nc2cccc(S(=O)(=O)F)c2)cc1	52.5 µM	> 100 µM	> 100 µM	> 100 µM	30.7 µM	> 100 µM	6.56 µM	> 100 µM	10.6 µM	> 100 µM	6.48 µM	> 100 µM	7.78 µM	> 100 µM	> 100 µM	> 100 µM	> 100 µM	> 100 µM	4.09 µM	> 100 µM
C[C@H](CCCOS(C)(=O)=O)[C@H]1CC[C@H]2[C@@H]3CC[C@@H]4C[C@H](OS(C)(=O)=O)CC[C@]4(C)[C@H]3CC[C@]12C	395 µM	–	954 µM	–	1020 µM	> 2500 µM	493 µM	–	1230 µM	> 2500 µM	323 µM	692 µM	286 µM	–	10.5 µM	–	1850 µM	> 2500 µM	816 µM	> 2500 µM
CNCC1CCn2c(c(C3=C(c4cn(C)c5ccccc45)C(=O)NC3=O)c3ccccc32)C1 (stereo not drawn)	3.62 µM	13.1 µM	3.68 µM	9.28 µM	5.04 µM	16.5 µM	3.62 µM	9.99 µM	3.41 µM	7.41 µM	1.74 µM	5.17 µM	2.99 µM	8.03 µM	10.2 µM	25 µM	4.17 µM	15.5 µM	3.56 µM	7.55 µM
NCCNc1ncnc2ccc(Cl)cc12	–	> 100 µM	–	> 100 µM	–	> 100 µM	–	> 100 µM	–	> 100 µM	–	> 100 µM	–	> 100 µM	–	> 100 µM	–	> 100 µM	–	> 100 µM
